Data reported in the supplement of paper PMC10307832.

Tests used:
Assay in all cases: relative viability (nuclei count vs DMSO), 5 days (fraction); higher = more cells survive
AZD8055 + Pictilisib = compound: COc1ccc(-c2ccc3c(N4CCOC[C@@H]4C)nc(N4CCOC[C@@H]4C)nc3n2)cc1CO [AZD8055] + CS(=O)(=O)N1CCN(Cc2cc3nc(-c4cccc5[nH]ncc45)nc(N4CCOCC4)c3s2)CC1 [Pictilisib] (partner 1 µM)
In short: (§1)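 The day after seeding in 1536-well plates, lung cancer cell lines were treated by pin tool with a single drug, or with a fixed anchor-drug dose together with five library-drug doses (not always all listed) in √10 steps. After 5 days, a combined fix-and-stain solution (final 0.05% Triton X-100, 1% formaldehyde, 1 ug/ml Hoechst) was added. Nuclei counted on 4× images gave relative viability as treated counts over vehicle counts, reported as the median of duplicate plates.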

AZD8055 + Alpelisib = compound: COc1ccc(-c2ccc3c(N4CCOC[C@@H]4C)nc(N4CCOC[C@@H]4C)nc3n2)cc1CO [AZD8055] + Cc1nc(NC(=O)N2CCC[C@H]2C(N)=O)sc1-c1ccnc(C(C)(C)C(F)(F)F)c1 [Alpelisib] (partner 2 µM)
In short: as §1

AZD8055 + Phenformin = compound: COc1ccc(-c2ccc3c(N4CCOC[C@@H]4C)nc(N4CCOC[C@@H]4C)nc3n2)cc1CO [AZD8055] + N=C(N)NC(=N)NCCc1ccccc1 [Phenformin] (partner 250 µM)
In short: as §1

AZD8055 + AZD7762 = compound: COc1ccc(-c2ccc3c(N4CCOC[C@@H]4C)nc(N4CCOC[C@@H]4C)nc3n2)cc1CO [AZD8055] + NC(=O)Nc1cc(-c2cccc(F)c2)sc1C(=O)N[C@H]1CCCNC1 [AZD7762] (partner 0.2 µM)
In short: as §1

Cell Line	relative viability (AZD8055 + Pictilisib; first compound 0.01 µM)	relative viability (AZD8055 + Pictilisib; first compound 0.03162 µM)	relative viability (AZD8055 + Pictilisib; first compound 0.1 µM)	relative viability (AZD8055 + Pictilisib; first compound 0.3162 µM)	relative viability (AZD8055 + Pictilisib; first compound 1 µM)	relative viability (AZD8055 + Alpelisib; first compound 0.01 µM)	relative viability (AZD8055 + Alpelisib; first compound 0.03162 µM)	relative viability (AZD8055 + Alpelisib; first compound 0.1 µM)	relative viability (AZD8055 + Alpelisib; first compound 0.3162 µM)	relative viability (AZD8055 + Alpelisib; first compound 1 µM)	relative viability (AZD8055 + Phenformin; first compound 0.01 µM)	relative viability (AZD8055 + Phenformin; first compound 0.03162 µM)	relative viability (AZD8055 + Phenformin; first compound 0.1 µM)	relative viability (AZD8055 + Phenformin; first compound 0.3162 µM)	relative viability (AZD8055 + Phenformin; first compound 1 µM)	relative viability (AZD8055 + AZD7762; first compound 0.01 µM)	relative viability (AZD8055 + AZD7762; first compound 0.03162 µM)	relative viability (AZD8055 + AZD7762; first compound 0.1 µM)	relative viability (AZD8055 + AZD7762; first compound 0.3162 µM)	relative viability (AZD8055 + AZD7762; first compound 1 µM)
NCI-H1755	0.39	0.312	0.274	0.253	0.271	0.879	0.744	0.607	0.378	0.363	0.609	0.594	0.541	0.463	0.474	0.625	0.401	0.416	0.364	0.33
NCI-H1792	0.235	0.229	0.142	0.112	0.094	0.447	0.482	0.361	0.131	0.108	0.193	0.193	0.0875	0.0907	0.109	0.589	0.291	0.21	0.0685	0.0707
NCI-H1793	0.288	0.268	0.177	0.238	0.156	0.605	0.347	0.224	0.175	0.17	0.405	0.272	0.196	0.203	0.207	0.379	0.264	0.197	0.145	0.127
NCI-H1915	0.879	0.715	0.851	0.706	0.487	1.12	0.941	0.996	0.645	0.455	0.373	0.348	0.356	0.364	0.302	0.777	0.48	0.686	0.425	0.454
NCI-H1944	0.323	0.302	0.278	0.275	0.287	0.716	0.63	0.543	0.366	0.25	0.193	0.2	0.187	0.148	0.129	0.455	0.453	0.393	0.268	0.202
NCI-H1975	0.257	0.209	0.183	0.179	0.176	0.454	0.365	0.259	0.249	0.231	0.369	0.309	0.233	0.172	0.174	0.732	0.636	0.466	0.328	0.348
NCI-H1993	0.752	0.701	0.892	0.637	0.896	0.679	0.629	0.632	0.623	0.638	0.509	0.469	0.529	0.49	0.576	0.646	0.377	0.402	0.366	0.516
NCI-H2085	0.458	0.394	0.347	0.319	0.346	0.896	0.758	0.575	0.382	0.372	0.739	0.67	0.417	0.34	0.314	0.994	0.848	0.706	0.409	0.362
NCI-H2087	1.06	0.704	0.574	0.446	0.328	0.996	0.924	0.809	0.44	0.381	0.555	0.41	0.422	0.242	0.232	1.37	1.36	1.33	0.654	0.478
NCI-H2126	0.478	0.52	0.385	0.362	0.415	0.75	0.655	0.601	0.382	0.371	0.488	0.503	0.438	0.349	0.379	1.03	1.07	0.902	0.587	0.508
NCI-H2170	0.273	0.255	0.213	0.222	0.23	0.691	0.623	0.386	0.288	0.252	0.438	0.437	0.471	0.407	0.341	1.04	0.733	0.502	0.293	0.226
NCI-H2347	0.65	0.601	0.357	0.322	0.428	1.19	0.934	0.674	0.467	0.413	0.381	0.283	0.338	0.178	0.205	0.781	0.614	0.633	0.449	0.281
NCI-H2405	0.503	0.398	0.316	0.182	0.223	0.757	0.655	0.442	0.293	0.291	0.399	0.368	0.341	0.302	0.275	0.832	0.779	0.621	0.324	0.313
NCI-H3122	0.549	0.47	0.337	0.272	0.29	0.737	0.541	0.34	0.309	0.251	0.444	0.425	0.428	0.233	0.204	1.13	1.01	0.594	0.351	0.187
PC-3 [JPC-3]	0.616	0.81	0.645	0.633	0.381	1.17	1.06	0.972	0.555	0.47	0.464	0.479	0.47	0.464	0.456	0.772	0.681	0.728	0.37	0.399
PC-14	0.587	0.452	0.294	0.184	0.113	0.977	0.913	0.795	0.316	0.155	0.857	0.595	0.284	0.216	0.167	0.458	0.394	0.294	0.147	0.102
RERF-LC-KJ	0.566	0.452	0.426	0.309	0.289	0.77	0.576	0.552	0.4	0.442	0.374	0.378	0.383	0.303	0.303	1.26	1.08	0.659	0.402	0.434
